Experimental data as given in US8129371B2, “Thienopyrimidine and pyrazolopyrimidine compounds and their use as mTOR kinase and PI3 kinase inhibitors” (Wyeth LLC, priority 2007, dated 2012).

What was measured:
Human mTOR (FLAG-TOR) = target: T1, Human mTOR (FLAG-TOR) (Homo sapiens, UniProt P42345); test: Human mTOR kinase assay with purified enzyme, DELFIA format; type: biochemical
T1 construct: FLAG
Summary of the method: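 Purified FLAG-mTOR in HEPES pH 7.4 buffer with 10 mM MnCl2 was preincubated with inhibitor and reacted 2 h at room temperature with His6-S6K substrate, then stopped with EDTA/EGTA. Phospho-T389 S6K detected by DELFIA with Eu-labelled antibody (40 ng/mL) after plate capture; inhibition computed from signal.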

PI3K [1] = target: T2, PI3K (Homo sapiens, UniProt P42336); test: Fluorescence polarization assay for PI3K; type: biochemical; conditions: PI3 Kinase α; read-out: PI3 Kinase α IC50
T2 construct: PI3 Kinase α IC50; other: PI3 Kinase α; other: PI3 Kinase α isoform, fluorescence polarization
T2 sequence (P42336 whole entry, canonical isoform): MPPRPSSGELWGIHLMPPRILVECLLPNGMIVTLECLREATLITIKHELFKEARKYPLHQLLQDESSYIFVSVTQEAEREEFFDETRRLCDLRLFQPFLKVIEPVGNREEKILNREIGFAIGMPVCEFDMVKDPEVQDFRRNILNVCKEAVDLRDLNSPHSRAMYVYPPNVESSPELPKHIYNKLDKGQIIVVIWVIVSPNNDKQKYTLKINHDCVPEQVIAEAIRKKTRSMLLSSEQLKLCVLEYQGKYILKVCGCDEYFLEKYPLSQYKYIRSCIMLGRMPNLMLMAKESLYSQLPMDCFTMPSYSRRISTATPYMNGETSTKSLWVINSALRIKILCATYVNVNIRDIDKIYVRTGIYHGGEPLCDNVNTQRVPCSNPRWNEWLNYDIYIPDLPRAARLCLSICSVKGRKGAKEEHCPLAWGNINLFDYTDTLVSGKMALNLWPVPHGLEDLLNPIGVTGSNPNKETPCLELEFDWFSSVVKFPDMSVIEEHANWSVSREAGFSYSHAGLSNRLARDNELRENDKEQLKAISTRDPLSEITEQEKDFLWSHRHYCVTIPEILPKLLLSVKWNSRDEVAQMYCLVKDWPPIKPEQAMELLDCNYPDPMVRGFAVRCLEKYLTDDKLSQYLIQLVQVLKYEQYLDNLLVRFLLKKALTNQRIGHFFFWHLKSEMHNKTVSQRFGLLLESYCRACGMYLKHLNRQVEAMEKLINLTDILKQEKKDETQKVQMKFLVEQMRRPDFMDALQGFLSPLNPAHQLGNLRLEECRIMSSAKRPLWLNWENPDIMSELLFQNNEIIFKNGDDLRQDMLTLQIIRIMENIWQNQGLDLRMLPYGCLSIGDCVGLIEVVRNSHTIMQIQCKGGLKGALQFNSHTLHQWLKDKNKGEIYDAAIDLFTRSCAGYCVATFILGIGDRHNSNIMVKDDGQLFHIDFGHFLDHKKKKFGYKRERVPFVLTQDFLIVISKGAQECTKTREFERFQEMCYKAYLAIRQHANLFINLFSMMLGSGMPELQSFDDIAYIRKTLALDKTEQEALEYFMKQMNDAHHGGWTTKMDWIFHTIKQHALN
Summary of the method: (§1)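 PI3K was preincubated with compound (final DMSO 1%), and the reaction was started with PIP2/ATP substrate and run 30–60 min. It was stopped with a detector mix giving 10 nM red probe and 70 nM GST-GRP.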

PI3K [2] = target: T3, PI3K (Homo sapiens, UniProt P48736); test: Fluorescence polarization assay for PI3K; type: biochemical; conditions: PI3 Kinase γ; read-out: PI3 Kinase γ IC50
T3 construct: PI3 Kinase γ IC50; other: PI3 Kinase γ; other: PI3 Kinase γ isoform, fluorescence polarization
T3 sequence (P48736 whole entry, canonical isoform): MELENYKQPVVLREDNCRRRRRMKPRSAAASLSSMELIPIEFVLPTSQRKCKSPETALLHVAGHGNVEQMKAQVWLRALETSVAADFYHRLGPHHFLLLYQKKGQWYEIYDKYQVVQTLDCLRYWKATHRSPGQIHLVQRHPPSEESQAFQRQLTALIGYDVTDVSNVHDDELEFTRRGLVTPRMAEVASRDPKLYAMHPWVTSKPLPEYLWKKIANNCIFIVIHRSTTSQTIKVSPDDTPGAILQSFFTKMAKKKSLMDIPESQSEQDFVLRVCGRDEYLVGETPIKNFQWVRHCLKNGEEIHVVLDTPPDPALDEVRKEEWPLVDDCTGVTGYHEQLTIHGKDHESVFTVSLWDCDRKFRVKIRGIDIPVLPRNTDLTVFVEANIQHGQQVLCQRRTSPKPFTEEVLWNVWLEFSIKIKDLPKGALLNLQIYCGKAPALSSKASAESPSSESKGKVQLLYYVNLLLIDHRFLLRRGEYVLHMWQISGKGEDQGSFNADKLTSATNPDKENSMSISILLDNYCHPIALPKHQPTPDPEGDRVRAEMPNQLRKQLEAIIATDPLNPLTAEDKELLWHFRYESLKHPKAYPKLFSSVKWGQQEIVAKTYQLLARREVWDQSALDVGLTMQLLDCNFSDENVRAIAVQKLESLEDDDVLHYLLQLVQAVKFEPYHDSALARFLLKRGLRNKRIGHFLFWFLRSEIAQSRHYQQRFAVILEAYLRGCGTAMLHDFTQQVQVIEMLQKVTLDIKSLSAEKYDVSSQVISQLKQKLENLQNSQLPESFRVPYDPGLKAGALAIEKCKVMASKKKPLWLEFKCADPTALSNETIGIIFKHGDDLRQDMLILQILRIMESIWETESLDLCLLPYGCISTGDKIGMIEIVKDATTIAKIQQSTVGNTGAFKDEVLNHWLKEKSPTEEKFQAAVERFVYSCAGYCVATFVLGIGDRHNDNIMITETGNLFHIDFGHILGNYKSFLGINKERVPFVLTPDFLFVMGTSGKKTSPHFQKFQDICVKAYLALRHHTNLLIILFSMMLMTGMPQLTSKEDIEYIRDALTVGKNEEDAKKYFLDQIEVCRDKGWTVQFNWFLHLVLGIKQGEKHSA
Summary of the method: as §1

prostate line LNCap = test: In vitro cell culture growth assay (MTS), LNCap; type: cell-based; conditions: Homo sapiens, LNCaP, 72 h, LNCap cells, three days after drug treatment
Summary of the method: (§2)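 Cells were plated and, one day later, treated with inhibitors. Three days after treatment, viable cell density was measured by MTS dye conversion, read as absorbance at 490 nm. Effects are expressed as percent of control growth versus vehicle-treated cells on the same plate.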

breast line MDA468 = test: In vitro cell culture growth assay (MTS), MDA468; type: cell-based; conditions: Homo sapiens, 72 h, MDA468 cells, three days after drug treatment
Summary of the method: as §2

SMILES | IC50 (Human mTOR (FLAG-TOR)) | IC50 (PI3K [1]) | IC50 (PI3K [2]) | IC50 (prostate line LNCap) | IC50 (breast line MDA468)
CC(C)C(=O)N1CCC(n2ncc3c(N4CC5CCC(C4)O5)nc(-c4ccc(NC(=O)NCCO)cc4)nc32)CC1 [Example 84, 1-(2-hydroxyethyl)-3-{4-[1-(1-isobutyrylpiperidin-4-yl)-4-(8-oxa-3-azabicyclo[3.2.1]oct-3-yl)-1H-pyrazolo[3,4-d]pyrimidin-6-yl]phenyl}urea] | 0.56 nM | 1980 nM | > 10000 nM | 1010 nM | 1200 nM
CC(C)C(=O)N1CCC(n2ncc3c(N4CC5CCC(C4)O5)nc(-c4ccc(NC(=O)NCCF)cc4)nc32)CC1 [Example 85, 1-(2-fluoroethyl)-3-{4-[1-(1-isobutyrylpiperidin-4-yl)-4-(8-oxa-3-azabicyclo[3.2.1]oct-3-yl)-1H-pyrazolo[3,4-d]pyrimidin-6-yl]phenyl}urea] | 0.47 nM | 2640 nM | > 10000 nM | 90 nM | 300 nM
CC(C)C(=O)N1CCC(n2ncc3c(N4CC5CCC(C4)O5)nc(-c4ccc(NC(=O)NC5CC5)cc4)nc32)CC1 [Example 86, 1-cyclopropyl-3-{4-[1-(1-isobutyrylpiperidin-4-yl)-4-(8-oxa-3-azabicyclo[3.2.1]oct-3-yl)-1H-pyrazolo[3,4-d]pyrimidin-6-yl]phenyl}urea] | 0.66 nM | 4240 nM | > 10000 nM | 80 nM | 350 nM
CC(C)C(=O)N1CCC(n2ncc3c(N4CC5CCC(C4)O5)nc(-c4ccc(NC(=O)Nc5ccncc5)cc4)nc32)CC1 [Example 89, 1-{4-[1-(1-isobutyrylpiperidin-4-yl)-4-(8-oxa-3-azabicyclo[3.2.1]oct-3-yl)-1H-pyrazolo[3,4-d]pyrimidin-6-yl]phenyl}-3-pyridin-4-ylurea] | 0.26 nM | 301 nM | 2380 nM | 15 nM | 63 nM
CNC(=O)Nc1ccc(-c2nc(N3CC4CCC(C3)O4)c3cnn(C(C)(C)C)c3n2)cc1 [Example 93] | 0.41 nM | 202 nM | > 10000 nM | 23 nM | 170 nM

More lines, main results first:

IC50 (Human mTOR (FLAG-TOR)) | IC50 (PI3K [1]) | IC50 (PI3K [2]) | IC50 (prostate line LNCap) | SMILES | IC50 (breast line MDA468)
0.8 nM | 396 nM | 7020 nM | 30 nM | CC(C)C(=O)N1CCC(n2ncc3c(N4CC5CCC(C4)O5)nc(-c4ccc(NC(=O)Nc5ccccc5)cc4)nc32)CC1 [Example 87, 1-{4-[1-(1-isobutyrylpiperidin-4-yl)-4-(8-oxa-3-azabicyclo[3.2.1]oct-3-yl)-1H-pyrazolo[3,4-d]pyrimidin-6-yl]phenyl}-3-phenylurea] | 120 nM
0.3 nM | 454 nM | 3820 nM | 60 nM | CC(C)C(=O)N1CCC(n2ncc3c(N4CC5CCC(C4)O5)nc(-c4ccc(NC(=O)Nc5cccnc5)cc4)nc32)CC1 [Example 88, 1-{4-[1-(1-isobutyrylpiperidin-4-yl)-4-(8-oxa-3-azabicyclo[3.2.1]oct-3-yl)-1H-pyrazolo[3,4-d]pyrimidin-6-yl]phenyl}-3-pyridin-3-ylurea] | 130 nM
0.39 nM | 412 nM | 4330 nM | 12 nM | O=C(Nc1ccc(-c2nc(N3CC4CCC(C3)O4)c3cnn(C4CCCCO4)c3n2)cc1)Nc1cccnc1 (centres unmarked) [Example 90, 1-{4-[4-(8-oxa-3-azabicyclo[3.2.1]oct-3-yl)-1-(tetrahydro-2H-pyran-2-yl)-1H-pyrazolo[3,4-d]pyrimidin-6-yl]phenyl}-3-pyridin-3-ylurea] | 60 nM
0.49 nM | 306 nM | 2640 nM | 500 nM | O=C(Nc1ccc(-c2nc(N3CC4CCC(C3)O4)c3cn[nH]c3n2)cc1)Nc1cccnc1 [Example 91, 1-{4-[4-(8-oxa-3-azabicyclo[3.2.1]oct-3-yl)-1H-pyrazolo[3,4-d]pyrimidin-6-yl]phenyl}-3-pyridin-3-ylurea] | 120 nM
11.7 nM | > 10000 nM | > 10000 nM | 1800 nM | COC(=O)Nc1ccc(-c2nc(N3CC4CCC(C3)O4)c3cnn(C(C)(C)C)c3n2)cc1 [Example 92] | 30000 nM
